#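 Values below derive from 48-hour exposures of cells grown in 96-well plates, with endpoints linearly interpolated between the two concentrations bracketing the appropriate inhibition level. GI50 = concentration required for 50% inhibition of growth. TGI denotes the concentration required for complete inhibition of growth.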
# Experiments:
# Experiment in all cases: NCI tumour cell line growth inhibition, 48 h
# HL-60(TB) leukemia = system: HL-60(TB) leukemia
# NCI-H226 lung = system: NCI-H226 lung
# SF-539 CNS = system: SF-539 CNS
# SK-MEL-28 melanoma = system: SK-MEL-28 melanoma
# K-562 leukemia = system: K-562 leukemia
# NCI-H460 lung = system: NCI-H460 lung
# NCI-H23 lung = system: NCI-H23 lung
# TK-10 renal = system: TK-10 renal
# LOX IMVI melanoma = system: LOX IMVI melanoma
# U251 CNS = system: U251 CNS
# SNB-19 CNS = system: SNB-19 CNS
# MCF7 breast = system: MCF7 breast
# UO-31 renal = system: UO-31 renal
# BT-549 breast = system: BT-549 breast
# EKVX NSCLC = system: EKVX NSCLC
# SK-MEL-2 melanoma = system: SK-MEL-2 melanoma
# MALME-3M melanoma = system: MALME-3M melanoma
# IGROV1 ovarian = system: IGROV1 ovarian
# RXF 393 renal = system: RXF 393 renal
# PC-3 prostate = system: PC-3 prostate
# HCT-15 colon = system: HCT-15 colon
# SF-295 CNS = system: SF-295 CNS
# DU-145 prostate = system: DU-145 prostate
# OVCAR-3 ovarian = system: OVCAR-3 ovarian
# T-47D breast = system: T-47D breast
# SK-MEL-5 melanoma = system: SK-MEL-5 melanoma
# ACHN renal = system: ACHN renal
# MDA-MB-468 breast = system: MDA-MB-468 breast
# A549 NSCLC = system: A549 NSCLC
structure (smiles),measurement,setting,value
COc1ccc([C@H]2C(C(=O)c3ccc(Cl)cc3)C3(N[C@@H]2c2ccccc2)C(=O)Nc2ccc(Br)cc23)cc1 (stereo partly drawn),GI50,HL-60(TB) leukemia,11.3 µM
same,TGI,HL-60(TB) leukemia,29.8 µM
same,GI50,NCI-H226 lung,8.47 µM
same,TGI,NCI-H226 lung,16.4 µM
same,GI50,SF-539 CNS,9.47 µM
same,TGI,SF-539 CNS,19.4 µM
same,GI50,SK-MEL-28 melanoma,8.83 µM
same,TGI,SK-MEL-28 melanoma,16.8 µM
same,GI50,K-562 leukemia,15.8 µM
same,TGI,K-562 leukemia,> 53.3 µM
same,GI50,NCI-H460 lung,10.1 µM
same,TGI,NCI-H460 lung,20.9 µM
same,GI50,NCI-H23 lung,10.2 µM
same,TGI,NCI-H23 lung,20.8 µM
same,GI50,TK-10 renal,10.8 µM
same,TGI,TK-10 renal,28.7 µM
same,GI50,LOX IMVI melanoma,7.86 µM
same,TGI,LOX IMVI melanoma,15.9 µM
same,GI50,U251 CNS,9.18 µM
same,TGI,U251 CNS,18 µM
same,GI50,SNB-19 CNS,15.1 µM
same,TGI,SNB-19 CNS,> 53.3 µM
same,GI50,MCF7 breast,11.5 µM
same,TGI,MCF7 breast,34.9 µM
same,GI50,UO-31 renal,10.7 µM
same,TGI,UO-31 renal,29.3 µM
same,GI50,BT-549 breast,8.66 µM
same,TGI,BT-549 breast,16.6 µM
same,GI50,EKVX NSCLC,12.4 µM
same,TGI,EKVX NSCLC,42.6 µM
same,GI50,SK-MEL-2 melanoma,8.37 µM
same,TGI,SK-MEL-2 melanoma,16 µM
same,GI50,MALME-3M melanoma,7.69 µM
same,TGI,MALME-3M melanoma,15.1 µM
same,GI50,IGROV1 ovarian,11 µM
same,TGI,IGROV1 ovarian,25.9 µM
same,GI50,RXF 393 renal,7.29 µM
same,TGI,RXF 393 renal,16.2 µM
same,GI50,PC-3 prostate,12.2 µM
same,TGI,PC-3 prostate,31.5 µM
same,GI50,HCT-15 colon,9.91 µM
same,TGI,HCT-15 colon,20.3 µM
same,GI50,SF-295 CNS,9.65 µM
same,TGI,SF-295 CNS,20.2 µM
same,GI50,DU-145 prostate,13.5 µM
same,TGI,DU-145 prostate,36.7 µM
same,GI50,OVCAR-3 ovarian,10.5 µM
same,TGI,OVCAR-3 ovarian,23.3 µM
same,GI50,T-47D breast,11.5 µM
same,TGI,T-47D breast,33.4 µM
same,GI50,SK-MEL-5 melanoma,8.65 µM
same,TGI,SK-MEL-5 melanoma,16.5 µM
same,GI50,ACHN renal,13.4 µM
same,TGI,ACHN renal,41.6 µM
same,GI50,MDA-MB-468 breast,10.2 µM
same,TGI,MDA-MB-468 breast,27 µM
same,GI50,A549 NSCLC,11.9 µM
same,TGI,A549 NSCLC,34.2 µM
